Experimental data: patent publication US10584146B2, “Heme peptide materials for anti-inflammatory regenerative nanobiomedicine” (UCHICAGO ARGONNE, LLC, priority 2016, dated 2020)
“Also recorded” adds a separate entry of the source. The star is where a group is joined. Palmitoyl = CCCCCCCCCCCCCCCC(=O)*

Experiments:
[1] = Peroxidase activity assay (TMB oxidation with H2O2); format: biochemical; settings: for peroxidase activity over extended times: TMB ~300 μM, H2O2 ~300 μM, Peptide 10 μM, Heme 1 μM, HEPES pH 7; for peroxidase activity (oxidation of TMB): assemblies prepared in pH 7 HEPES (micelles), assay at pH 7, peptide 10 μM, heme 1 μM
Procedure: Peroxidase Activity Assay. Peroxidase activity was monitored using a Varian Cary 50 spectrophotometer and the kinetics software package. 652 nm was the chosen wavelength based on its characterization in the literature (extinction coefficient: 39,000 M−1 cm-1). In a solution of HEPES buffer, pH 7 (50 mM HEPES 100 mM NaCl), a commercially available cocktail of 3,3′,5,5′-Tetramethylbenzidine (TMB) and H2O2 (both ˜3 mM, purchased from Sigma-Aldrich) was diluted 1:10. This was monitored for 1 minute to detect any changes in the background then protein was added (prepared as above at 500 μM peptide and 50 μM heme) to a final concentration of 10 μM (1 μM Heme). The reaction was allowed to run for 15 minutes to assure completion. In the case of Michaelis-Menten analyses two stock solutions of TMB (10 mg/mL, 41.6 mM in DMSO) and peroxide (52.8 mM diluted in H2O, H2O2 stock concentration standardized by the method of Klassen et. al.) (57) were made so the concentrations could be varied de-pending on the experiment. When varying peroxide concentration TMB was at a concentration of 300 μM. Michaelis-Menten curves were fit using Origin 9.1 software to the equation (v0=kCat[E]0[S]0/(KM+[S]0)). Catalytic efficiency values (kCat/KM) were determined by fitting the linear portion of those curves to the equation (v0=(kCat/KM)[E]0[S]0). Total amount of oxidized TMB was calcu-lated by integrating the absorbance at 652 nm (done with Origin 9.1 software), and dividing that value by the extinction coefficient.
Many natural and synthetic heme proteins display peroxidase activity, a natural reaction that catalyzes the oxidation of high potential substrates using hydrogen peroxide (H2O2). Here, we employed heme-peroxidase catalysis as a benchmark reaction to investigate how supramolecular morphology in PA-Heme assemblies can control catalytic reactivity. (53) We have chosen the established protocol where H2O2 activated by the XXHeme assemblies reacts with the colorless molecule 3,3′,5,5′-tetramethylbenzidine (TMB) to yield the oxidized blue diimine product and water. (54) All of these assays were carried out in pH 7 HEPES buffer. Peptide assemblies were prepared in either pH 7 HEPES or 10.5 NH4OH and then diluted 50 fold into the reaction mixture to maintain standard reaction conditions. […] The rates of these peptides are consistent with the Michaelis-Menten enzyme kinetics model (FIGS. 19C, 19D, and 21). […] Applicants show a clear and significant dependence of peroxidase activity dependent on supramolecular morphology. […] The micelle structures offer a more dynamic assembly that allows substrate to interact with the engineered heme active site.

[2] = Spectroelectrochemistry, midpoint potential; format: physicochemical
Procedure: Electrochemistry. The samples were placed in a spectroecltrochemical cell (1 mm quartz) equipped with a platinum mesh working electrode, platinum wire auxiliary electrode, and a Ag/AgCl reference electrode (Basi, Inc.). […] Each applied voltage setting was allowed to equilibrate for a minimum of 20 minutes prior to UV/visible spectral acquisition (Perkin Elmer, Lambda 950, UV/vis/NIR spectrophotometer). Midpoint potential analysis was achieved by fitting a standard Boltzmann curve to the obtained data (OriginPro 9.1).

[3] = Heme titration, stoichiometry and binding constant analysis (UV/visible)
Procedure: FIGS. 14A-14P depict stoichiometry and binding constant analysis of peptide titrations (0-1000 μM XX in 50 μM titrants) into heme solutions (50 μM) in Hepes buffer (right) or 10 mM NH4OH (left). UV/visible spectroscopy and plots of [Peptide]/[Heme] vs. absorption (λSoret). The solid lines represent the binding constant analysis and were obtained in Origin v9.1 by applying equation 1 (FIG. 15). The following values were fixed: M=5×10^−5 M, 1=0.1 cm. All other values were permitted to float for the first round of analysis. Once n was determined, a common integer was applied to each data set within the conditions employed, e.g. n=3 for HEPES and n=6 for 10 mM NH4OH. The vertical line at x=10 marks the samples that were analyzed further by UV/vis and EPR.
FIG. 15 is the equation employed for stoichiometry and binding constant analysis; the follow variables are used: Ao, initial absorption; ϵB, extinction of bound heme; ϵs, extinction coefficient contribution from scattering; x, ratio of peptide to heme; n, set stoichiometry of peptide to heme; Kd, dissociation (binding) constant M, molar concentration of heme; l, cuvette pathlength.
Sample Preparation. Each peptide (3-4 mg) was dissolved in nanopure water (Millipore A10) to obtain a 1 wt % solution, c16-AAL3K3-CO2H (SEQ ID NO: 9) (1 wt %, 8.9 mM), c16-AHL3K3-CO2H (SEQ ID NO: 3) (1 wt %, 8.4 mM), c16-HHL3K3-CO2H (SEQ ID NO: 4) (1 wt %, 7.9 mM) and c16-MHL3K3-CO2H (SEQ ID NO: 5) (1 wt %, 8.0 mM). Hemin (Porcine, Sigma-Aldrich) was dissolved in DMSO (Sigma Aldrich) to achieve a 10 mM stock solution. Note: He-min/DMSO stock solutions were always made to ensure that the final DMSO concentration in the sam-ple was less than 1% (v/v). Typically, 38 μL of a 1 wt % stock solution was dissolved in 260 μL of ei-ther HEPES (50 mM HEPES, 100 mM NaCl pH 7.0) or 10 mM NH4OH, pH 10.5 to yield a 1 mM sample. […] Titration experiments analyzed samples that contained 50 μM Heme in either Hepes buffer or 10 mM NH4OH. […]

| peroxidase activity over extended times [1] | peroxidase activity (oxidation of TMB) [1] | kCat, in words ([1]; micelles, pH 7) | heme binding affinity (Kd), in words ([3]; fibers, compared with micelles) | heme binding affinity (Kd), in words ([3]; micelles) | Substance | midpoint potential (EM) vs. SHE ([2]; fibers, 10 mM NH4OH) [mV] | midpoint potential (EM) vs. SHE ([2]; micelles, HEPES) [mV] |
| --- | --- | --- | --- | --- | --- | --- | --- |
| does not appear to have any activity | not reactive | – | – | – | c16-AAL3K3-CO2H (Palmitoyl-AALLLKKK-OH; also: heme) [AAHeme, control peptide amphiphile without heme coordination site; XXHeme denotes the holo state (coordinated heme)] | – | – |
| most initial activity | varying degrees of peroxidase activity | higher kCat, than HHHeme | decrease in heme binding affinity | – | c16-MHL3K3-CO2H (Palmitoyl-MHLLLKKK-OH; also: heme) [MHHeme, XXHeme denotes the holo state] | −442 | −312 |
| most initial activity | varying degrees of peroxidase activity | – | binding affinity actually increases | – | c16-AHL3K3-CO2H (Palmitoyl-AHLLLKKK-OH; also: heme) [AHHeme, XXHeme denotes the holo state] | −655 | −315 |

| Substance | peroxidase activity over extended times [1] | peroxidase activity (oxidation of TMB) [1] | kCat, in words ([1]; micelles, pH 7) | heme binding affinity (Kd), in words ([3]; fibers, compared with micelles) | heme binding affinity (Kd), in words ([3]; micelles) | midpoint potential (EM) vs. SHE ([2]; fibers, 10 mM NH4OH) [mV] | midpoint potential (EM) vs. SHE ([2]; micelles, HEPES) [mV] |
| --- | --- | --- | --- | --- | --- | --- | --- |
| c16-HHL3K3-CO2H (Palmitoyl-HHLLLKKK-OH; also: heme) [HHHeme, XXHeme denotes the holo state] | – | varying degrees of peroxidase activity; also recorded: low reactivity compared to the other peptides | – | – | highest binding affinity | −333 | −270 |
